Results: US12558400B2, “Method of treatment of soft tissue sarcoma with a peptide comrpising a PCNA interacting motif” (THERAPIM PTY LTD, priority 2020, dated 2026)
Where no end group is shown, it is not given here.

Key:
[1] = Solubility of the peptide drug substance; assay type: physicochemical; settings: water and aqueous media; hydrochloride salt
Text: The product was available as a hydrochloride salt (chloride counter-ion is ionically bound to the basic side chains of the peptide; 18 mol/mol peptide, theoretically; Molecular formula: C158H285N71O29S, 18 HCl; Relative molecular mass: […]. Free base: 3673.3).

[2] = system: patients with advanced solid tumors; assay: Phase I safety and tolerability study of ATX-101 (studies ATX101-01 and -02); assay type: in vivo
Method: A Phase I, open-label, single arm, safety and tolerability study was conducted (study ATX101-01) which evaluated escalating dose cohorts of ATX-101 (SEQ ID NO: 914) in patients with advanced solid tumors. The study was designed to systematically assess safety and tolerability, and to identify the Maximum Tolerated Dose (MTD) and recommended Phase II dose for ATX-101. Pharmacokinetics and preliminary efficacy (anti-tumor activity) were also assessed.
If at the end of the 6-week Phase I study (study ATX101-01) the patient's tumor didn't show signs of progression, treatment could be continued in a long-term follow-up study (study ATX101-02) until disease progression or other reasons for treatment discontinuation, e.g. withdrawal of consent.
Four dose levels (20, 35, 45 and 60 mg/m^2 of body surface area calculated based on the height and weight of patients) of intravenous ATX-101 (net peptide, excluding the mass of the salt component) were tested in the Phase I study (study ATX101-01). ATX-101 was administered via IV infusion over at least 1 hour either using a constant infusion rate or an adaptable infusion rate scheme starting with 5 mg/hr and increasing the infusion flow rate every 30 minutes, as outlined in the infusion rate table below (Table 1). […] Doses of 45 and 60 mg/m^2 were administered in 500 mL.
Treatment was administered weekly in cycles of 21-day duration, with a single IV infusion of ATX-101 on Day 1, 8 and 15 of each cycle. Dosing of patients occurred weekly for up to two cycles (i.e. 2×21 days=6 weeks).
Following the initial 6 weeks of treatment in the Phase I study (study ATX101-01), patients could continue the treatment in the long-term follow-up study (study ATX101-02). These patients, that received the same dose regimen as in study −01, were treated for up to 15.6 months.
Safety: Incidence, severity, and duration of treatment-emergent adverse events (TEAEs) and treatment related TEAEs were assessed according to Common Terminology Criteria for Adverse Events (CTCAE) v4.03.

Substance: Ac-MDRWLVKWKKKRKIRRRRRRRRRRR (N-terminus assumed) [ATX-101]
- solubility [1]: freely soluble
- treatment related deaths ([2]; 22 patients, weekly IV infusion, all dose levels (20-60 mg/m^2)): No treatment related deaths
- course of infusion-related reactions after repeated doses ([2]; in vivo): did not worsen
- Dose Limiting Toxicities (DLTs) ([2]; in vivo, iv): no Dose Limiting Toxicities
- infusion-related reactions (IRR) Grade 1 or 2, proportion of patients ([2]; in vivo, iv): 73%
- treatment discontinuation due to treatment related toxicity ([2]; in vivo, iv): no treatment discontinuation due to treatment related toxicity
- treatment related serious adverse event or severe adverse event ([2]; in vivo, iv): no treatment related serious adverse event or severe adverse event
